Data taken from patent US7943630B2, “3,9-diaza-spiro[5.5]undecane derivatives and their use as monoamine neurotransmitter re-uptake inhibitors” (Neurosearch A/S, priority 2005, dated 2011).

SMILES	melting point [°C]
Clc1ccc(N2CCC3(CCNCC3)CC2)cc1Cl [4th compound of method C, 3-(3,4-Dichloro-phenyl)-3,9-diaza-spiro[5.5]undecane]	209 to 212
Brc1ccc(N2CCC3(CCNCC3)CC2)nc1	103 to 105
Clc1cccc(N2CCC3(CCNCC3)CC2)c1Cl	80.4 to 81.9
c1ccc2cc(N3CCC4(CCNCC4)CC3)ccc2c1 [10th compound of method C, 3-Naphthalen-2-yl-3,9-diaza-spiro[5.5]undecane]	158 to 162
Clc1ccc(N2CCC3(CCNCC3)CC2)cc1 [7th compound of method C, 3-(4-Chloro-phenyl)-3,9-diaza-spiro[5.5]undecane]	95.5 to 97.4
Brc1cccc(N2CCC3(CCNCC3)CC2)n1.O=C(O)/C=C/C(=O)O	198.5 to 199.3
Clc1ccc(N2CCC3(CCNCC3)CC2)nc1	71.2 to 72.9
Fc1ccc(N2CCC3(CCNCC3)CC2)cc1Cl.O=C(O)/C=C/C(=O)O	201.4 to 202.2
COc1ccc2cc(N3CCC4(CCNCC4)CC3)ccc2c1 [3rd compound of method C, 3-(6-Methoxy-naphthalen-2-yl)-3,9-diaza-spiro[5.5]undecane]	175.8 to 177.6
